Values after ≈ are worked out from the molar mass of the structure shown.
Columns and labels:
[1] = test system: Staphylococcus epidermidis; test: Antibacterial activity against methicillin resistant Staphylococcus epidermidis clinical isolate 19-6 assessed as inhibition of bacterial growth incubated for 18 to 24 hrs by broth microdilution method; format: functional; conditions: time 18-24 hrs
Klebsiella pneumoniae [2] = test: Antibacterial activity against carbapenem resistant Klebsiella pneumoniae clinical isolate 19-15 assessed as inhibition of bacterial growth incubated for 18 to 24 hrs by broth microdilution method; format: functional; conditions: time 18-24 hrs
Acinetobacter baumannii [3] = test: Antibacterial activity against carbapenem resistant Acinetobacter baumannii clinical isolate 19-8 assessed as inhibition of bacterial growth incubated for 18 to 24 hrs by broth microdilution method; format: functional; conditions: time 18-24 hrs
[4] = test system: Staphylococcus epidermidis; test: Antibacterial activity against methicillin resistant Staphylococcus epidermidis clinical isolate 19-5 assessed as inhibition of bacterial growth incubated for 18 to 24 hrs by broth microdilution method; format: functional; conditions: time 18-24 hrs
Klebsiella pneumoniae [5] = test: Antibacterial activity against carbapenem resistant Klebsiella pneumoniae clinical isolate 19-17 assessed as inhibition of bacterial growth incubated for 18 to 24 hrs by broth microdilution method; format: functional; conditions: time 18-24 hrs
Escherichia coli [6] = test: Antibacterial activity against Escherichia coli ATCC BAA-2523 assessed as inhibition of bacterial growth incubated for 18 to 24 hrs by broth microdilution method; format: functional; conditions: time 18-24 hrs
Staphylococcus aureus [7] = test: Antibacterial activity against Staphylococcus aureus ATCC 29213 assessed as inhibition of bacterial growth incubated for 18 to 24 hrs by broth microdilution method; format: functional; conditions: time 18-24 hrs
Escherichia coli [8] = test: Antibacterial activity against Escherichia coli clinical isolate 19-2 assessed as inhibition of bacterial growth incubated for 18 to 24 hrs by broth microdilution method; format: functional; conditions: time 18-24 hrs
[9] = Cytotoxicity against human HK-2 cells assessed as inhibition of cell growth incubated for 72 hrs by CCK-8 assay; format: toxicity, cell-based
Pseudomonas aeruginosa [10] = test: Antibacterial activity against Pseudomonas aeruginosa ATCC 27853 assessed as inhibition of bacterial growth incubated for 18 to 24 hrs by broth microdilution method; format: functional; conditions: time 18-24 hrs
Pseudomonas aeruginosa [11] = test: Antibacterial activity against carbapenem resistant Pseudomonas aeruginosa clinical isolate 19-3 assessed as inhibition of bacterial growth incubated for 18 to 24 hrs by broth microdilution method; format: functional; conditions: time 18-24 hrs
Pseudomonas aeruginosa [12] = test: Antibacterial activity against carbapenem resistant Pseudomonas aeruginosa clinical isolate 17-1 assessed as inhibition of bacterial growth incubated for 18 to 24 hrs by broth microdilution method; format: functional; conditions: time 18-24 hrs
Staphylococcus aureus [13] = test: Antibacterial activity against methicillin resistant Staphylococcus aureus ATCC 33591 assessed as inhibition of bacterial growth incubated for 18 to 24 hrs by broth microdilution method; format: functional; conditions: time 18-24 hrs
Escherichia coli [14] = test: Antibacterial activity against KPC producing Escherichia coli ATCC BAA-2340 assessed as inhibition of bacterial growth incubated for 18 to 24 hrs by broth microdilution method; format: functional; conditions: time 18-24 hrs
Pseudomonas aeruginosa [15] = test: Antibacterial activity against Pseudomonas aeruginosa clinical isolate 19-1 assessed as inhibition of bacterial growth incubated for 18 to 24 hrs by broth microdilution method; format: functional; conditions: time 18-24 hrs
[16] = Selectivity index, ratio of IC50 for cytotoxicity against human HK-2 cells to MIC for antibacterial activity against Escherichia coli ATCC BAA-2523; format: toxicity, cell-based
Klebsiella pneumoniae [17] = test: Antibacterial activity against KPC producing Klebsiella pneumoniae ATCC BAA-1705 assessed as inhibition of bacterial growth incubated for 18 to 24 hrs by broth microdilution method; format: functional; conditions: time 18-24 hrs
Escherichia coli [18] = test: Antibacterial activity against Escherichia coli NCTC 13353 assessed as inhibition of bacterial growth incubated for 18 to 24 hrs by broth microdilution method; format: functional; conditions: time 18-24 hrs
Acinetobacter baumannii [19] = test: Antibacterial activity against oxacillinase-27 producing Acinetobacter baumannii NCTC 13304 assessed as inhibition of bacterial growth incubated for 18 to 24 hrs by broth microdilution method; format: functional; conditions: time 18-24 hrs

SMILES	MIC [1]	MIC (Klebsiella pneumoniae [2])	MIC (Acinetobacter baumannii [3])	MIC [4]	MIC (Klebsiella pneumoniae [5])	MIC (Escherichia coli [6])	MIC (Staphylococcus aureus [7])	MIC (Escherichia coli [8])	IC50 at 72 h [9]	MIC (Pseudomonas aeruginosa [10])	MIC (Pseudomonas aeruginosa [11])	MIC (Pseudomonas aeruginosa [12])	MIC (Staphylococcus aureus [13])	MIC (Escherichia coli [14])	MIC (Pseudomonas aeruginosa [15])	selectivity ratio [16]	MIC (Klebsiella pneumoniae [17])	MIC (Escherichia coli [18])	MIC (Acinetobacter baumannii [19])
CCCCCCC[C@@H](O)CC(=O)N[C@H](CO)C(=O)N[C@H](CCN)C(=O)N[C@H]1CCNC(=O)[C@H](CC(C)C)NC(=O)[C@H](CCN)NC(=O)[C@H](CCN)NC(=O)[C@H](Cc2ccccc2)NC(=O)[C@@H](CC(C)C)NC(=O)[C@H](CCN)NC1=O	8 µg/mL (≈ 7.07 µM)	4 µg/mL (≈ 3.54 µM)	16 µg/mL (≈ 14.1 µM)	2 µg/mL (≈ 1.77 µM)	8 µg/mL (≈ 7.07 µM)	4 µg/mL (≈ 3.54 µM)	64 µg/mL (≈ 56.6 µM)	16 µg/mL (≈ 14.1 µM)	55.4 µg/mL (≈ 49 µM)	2 µg/mL (≈ 1.77 µM)	2 µg/mL (≈ 1.77 µM)	2 µg/mL (≈ 1.77 µM)	64 µg/mL (≈ 56.6 µM)	4 µg/mL (≈ 3.54 µM)	8 µg/mL (≈ 7.07 µM)	13.9	2 µg/mL (≈ 1.77 µM)	16 µg/mL (≈ 14.1 µM)	8 µg/mL (≈ 7.07 µM)
CCCCCCC[C@@H](O)CC(=O)N[C@H](CCN)C(=O)N[C@H]1CCNC(=O)[C@H]([C@@H](C)O)NC(=O)[C@H](CCN)NC(=O)[C@H](CCN)NC(=O)[C@H]([C@@H](C)O)NC(=O)[C@@H](CC(C)C)NC(=O)[C@H](CCN)NC1=O	> 64 µg/mL	16 µg/mL (≈ 16.2 µM)	> 64 µg/mL	> 64 µg/mL	64 µg/mL (≈ 64.9 µM)	2 µg/mL (≈ 2.03 µM)	> 64 µg/mL	16 µg/mL (≈ 16.2 µM)	411 µg/mL (≈ 417 µM)	0.25 µg/mL (≈ 0.253 µM)	0.5 µg/mL (≈ 0.507 µM)	0.5 µg/mL (≈ 0.507 µM)	> 64 µg/mL	4 µg/mL (≈ 4.06 µM)	0.5 µg/mL (≈ 0.507 µM)	205	4 µg/mL (≈ 4.06 µM)	16 µg/mL (≈ 16.2 µM)	> 64 µg/mL
CCCCCCCCCC(=O)N[C@H](CCN)C(=O)N[C@H]1CCNC(=O)[C@H]([C@@H](C)O)NC(=O)[C@H](CCN)NC(=O)[C@H](CCN)NC(=O)[C@H](CC(C)C)NC(=O)[C@@H](Cc2ccc(C(C)(C)C)cc2)NC(=O)[C@H](CCN)NC1=O	2 µg/mL (≈ 1.86 µM)	4 µg/mL (≈ 3.73 µM)	16 µg/mL (≈ 14.9 µM)	0.5 µg/mL (≈ 0.466 µM)	2 µg/mL (≈ 1.86 µM)	1 µg/mL (≈ 0.932 µM)	4 µg/mL (≈ 3.73 µM)	2 µg/mL (≈ 1.86 µM)	15.9 µg/mL (≈ 14.8 µM)	2 µg/mL (≈ 1.86 µM)	2 µg/mL (≈ 1.86 µM)	4 µg/mL (≈ 3.73 µM)	4 µg/mL (≈ 3.73 µM)	2 µg/mL (≈ 1.86 µM)	4 µg/mL (≈ 3.73 µM)	15.9	2 µg/mL (≈ 1.86 µM)	4 µg/mL (≈ 3.73 µM)	16 µg/mL (≈ 14.9 µM)
CCCCCCCCCC(=O)N[C@H](CCN)C(=O)N[C@H]1CCNC(=O)[C@H]([C@@H](C)O)NC(=O)[C@H](CCN)NC(=O)[C@H](CCN)NC(=O)[C@@H](CC(C)C)NC(=O)[C@@H](CC(C)C)NC(=O)[C@H](CCN)NC1=O	32 µg/mL (≈ 32.6 µM)	64 µg/mL (≈ 65.2 µM)	> 64 µg/mL	2 µg/mL (≈ 2.04 µM)	> 64 µg/mL	64 µg/mL (≈ 65.2 µM)	> 64 µg/mL	64 µg/mL (≈ 65.2 µM)	87.5 µg/mL (≈ 89.1 µM)	64 µg/mL (≈ 65.2 µM)	64 µg/mL (≈ 65.2 µM)	64 µg/mL (≈ 65.2 µM)	> 64 µg/mL	64 µg/mL (≈ 65.2 µM)	64 µg/mL (≈ 65.2 µM)	1.4	> 64 µg/mL	64 µg/mL (≈ 65.2 µM)	> 64 µg/mL
CCCCCCCCC(=O)N[C@H](CCN)C(=O)N[C@H]1CCNC(=O)[C@H](CC(C)C)NC(=O)[C@H](CCN)NC(=O)[C@H](CCN)NC(=O)[C@H](CC(C)C)NC(=O)[C@@H](CC(C)C)NC(=O)[C@H](CCN)NC1=O	16 µg/mL (≈ 16.3 µM)	16 µg/mL (≈ 16.3 µM)	8 µg/mL (≈ 8.16 µM)	4 µg/mL (≈ 4.08 µM)	16 µg/mL (≈ 16.3 µM)	16 µg/mL (≈ 16.3 µM)	> 64 µg/mL	32 µg/mL (≈ 32.6 µM)	77.4 µg/mL (≈ 79 µM)	1 µg/mL (≈ 1.02 µM)	4 µg/mL (≈ 4.08 µM)	2 µg/mL (≈ 2.04 µM)	> 64 µg/mL	2 µg/mL (≈ 2.04 µM)	4 µg/mL (≈ 4.08 µM)	4.8	2 µg/mL (≈ 2.04 µM)	16 µg/mL (≈ 16.3 µM)	8 µg/mL (≈ 8.16 µM)

Reference: ChEMBL document CHEMBL5380795, “Design, Synthesis, and Bioactivity Investigation of Cyclic Lipopeptide Antibiotics Containing Eight to Nine Amino Acids” (J Med Chem, 2023)
